{"source": "patent US20050187190A1", "about": "“Autoinducer-2 compounds as immunomodulatory agents” (priority 2004, published 2005)", "key": {"[1]": {"test_system": "IL-1 production in J774 macrophages", "assay": "IL-1 production by stimulated J774 macrophages, ELISA of culture supernatants", "format": "cell-based, mouse", "conditions": "for release of IL-1: absence of exogenously-supplied immunostimulatory factors; for effect on IL-1 production: LPS-treated macrophages", "description": "(§1) J774.1 macrophages were cultured in RPMI 1640 medium containing 15% fetal calf serum in a humidified 37° C. incubator supplied with 5% CO2. Cells were plated at 50% confluency in 96 well format and allowed to attach overnight. For immunostimulation experiments, cells were incubated overnight in 100 μl of the above medium containing sub-maximal stimulatory levels of inducers: 0.1 μg/mL Salmonella lipopolysaccharide (Sigma), 1 μg/mL lipoteichoic acid (Sigma) or sterile, cell-free bacterially conditioned medium at a final concentration of 10^7 cell equivalents/mL. Following incubation, the medium was removed, centrifuged, and stored at −20° C. for subsequent assay for the presence of released cytokines. Preparation of bacterially conditioned medium Pseudomonas aeruginosa strain PAO1 and Lux^+ or Lux^− strains of Salmonella typhimurium 14028 were cultured in Luria Broth overnight. The optical density of the cultures was measured at 600 nm and cell densities calculated through use of a MacFarland's standard. Bacterial cultures were centrifuged and supernatants were filtered through a 0.2 micron sterile filter to remove all bacteria.\n(§2) Centrifuged macrophage culture supernatants were assayed for the presence of secreted IL-1 and IL-6 through use of an ELISA kit according to the manufacturer's directions (R&D Systems, Minneapolis, Minn.). Briefly, 10 μl of culture supernatants were bound to test wells precoated with either anti-IL-1 or anti-IL-6 immunoglobulin. Bound cytokine was detected through use of a secondary cytokine-specific antibody tagged with horseradish peroxidase. Assay samples were developed through use of stabilized tetramethylbenzidine and hydrogen peroxide. Cytokine level, directly proportional to the colorimetric signal, was quantitated by measuring sample absorbance at 450 nm."}, "[2]": {"target": "T1, recombinant COX-2 (Homo sapiens, UniProt P35354)", "T1 sequence (P35354 18-604)": "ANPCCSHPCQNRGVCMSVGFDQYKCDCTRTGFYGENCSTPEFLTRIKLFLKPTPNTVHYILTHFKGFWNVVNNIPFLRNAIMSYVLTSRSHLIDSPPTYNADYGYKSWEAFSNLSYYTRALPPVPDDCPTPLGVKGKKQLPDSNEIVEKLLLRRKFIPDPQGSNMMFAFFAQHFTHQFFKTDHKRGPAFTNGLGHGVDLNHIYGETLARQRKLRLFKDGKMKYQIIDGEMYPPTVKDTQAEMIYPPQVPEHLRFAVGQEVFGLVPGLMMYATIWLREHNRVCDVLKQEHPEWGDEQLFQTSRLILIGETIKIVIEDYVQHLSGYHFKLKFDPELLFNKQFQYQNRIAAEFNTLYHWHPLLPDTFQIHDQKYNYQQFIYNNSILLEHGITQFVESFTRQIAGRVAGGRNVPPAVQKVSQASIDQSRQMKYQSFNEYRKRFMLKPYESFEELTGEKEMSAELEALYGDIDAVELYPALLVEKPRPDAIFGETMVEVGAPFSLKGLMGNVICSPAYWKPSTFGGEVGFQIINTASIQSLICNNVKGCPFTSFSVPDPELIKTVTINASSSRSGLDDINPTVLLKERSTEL", "assay": "Inhibition of recombinant COX-2 prostaglandin synthesis, ELISA for PGE2", "format": "biochemical", "description": "“Max Inhibition” and “Aspirin/1000 uM” are positive inhibition controls. “Analog/500 uM,” represents the inhibition of prostaglandin synthesis by 500 μM MHF; “AI-2/40 uM” and “AI-2/80 uM” represents the inhibition of prostaglandin synthesis by 40 and 80 μM, respectively of AI-2. “Ribose/500 um” the inhibition of prostaglandin synthesis by 500 μM ribose. Prostaglandin synthesis was indirectly quantitated using an ELISA for PGE2 production.\nExtracellular bacterial signals trigger expression of cyclooxygenase-2 (cox-2), which amplifies the cellular IL-6 response by catalyzing production of prostaglandin PGE2.\nAspirin, a non-specific inhibitor of COX-2 served as an inhibition control; prostaglandin synthesis was indirectly quantitated in an ELISA assay."}, "[3]": {"test_system": "IL-6 production in J774 macrophages", "assay": "IL-6 production by stimulated J774 macrophages, ELISA of culture supernatants", "format": "cell-based, mouse", "conditions": "for release of IL-6: absence of exogenously-supplied immunostimulatory factors; for production of IL-6: regardless of stimulus: viral ribopolymers, LPS or lipoteichoic acid; for effect on IL-6 production: LPS-treated macrophages", "description": "as §1, §2"}, "[4]": {"test_system": "nitric oxide production (iNOS activity) in J774 macrophages", "assay": "Nitric oxide (nitrite) production by LPS-stimulated J774 macrophages", "format": "cell-based, mouse", "description": "FIG. 10 is a bar graph showing that AI-2 treatment suppresses nitric oxide production by LPS-stimulated J774 macrophages. “LPS+34,” “LPS+AI-2(5 ul)” and LPS+AI-2(2 ul) represents inhibition by concurrent treatment with LPS and MHF or the indicated amounts of AI-2. “LPS+ribose” is a control to show the amount of nitric oxide production in the absence of an inhibitor."}, "[5]": {"test_system": "MM32", "assay": "MM32 light production assay (quorum sensing activity)", "format": "cell-based, Vibrio harveyi", "excerpt": "Such agonists and analogs can be readily recognized by their action on the quorum-sensing system of bacteria such as mutant strains of Vibrio harveyi that respond to AI-2 but cannot produce it themselves. For example, AI-2 analogs and agonists can be identified by known techniques, including but not limited to, large-scale screening of compounds through use of the V. harveyi bioassay described in U.S. Pat. No. 6,780,890 and other techniques described therein. Reduction in signaling activity in the presence of a test compound indicates the ability of that compound to, for example, block bacterial pathogenesis by affecting the expression of one or more virulence factors."}, "[6]": {"conditions": "LPS 0.1 μg/mL, concurrent AI-2 40 μM"}, "[7]": {"conditions": "LPS-stimulated macrophages, increasing amounts of enzymatically-prepared AI-2"}}}
{"smiles": "CC(=O)C(=O)[C@@H](O)CO", "note": "[AI-2]", "values": [{"measurement": "reduction of overall concentration of IL-1", "setting": "[1]; [6]", "value": "approximately 50%"}, {"measurement": "IL-1 production, dose dependence", "setting": "[1]; [7]", "value": "increasing suppression"}, {"measurement": "release of IL-1", "setting": "[1]", "value": "neither AI-2 nor its biosynthesis co-products, adenine and homocysteine, cause macrophages to release IL-1 or IL-6"}, {"measurement": "IC50", "setting": "[2]; read-out: IC50, prostaglandin level produced by recombinant COX-2", "value": 40, "unit": "µM"}, {"measurement": "reduction of overall concentration of IL-6", "setting": "[3]; [6]", "value": "approximately 50%"}, {"measurement": "IL-6 production, dose dependence", "setting": "[3]; [7]", "value": "increasing suppression"}, {"measurement": "release of IL-6", "setting": "[3]", "value": "neither AI-2 nor its biosynthesis co-products, adenine and homocysteine, cause macrophages to release IL-1 or IL-6"}, {"measurement": "reduction in IL-6 levels", "setting": "[3]; macrophages stimulated with LPS (0.1 μg/ml), 5 μl of the AI-2 reaction product", "value": "~50", "unit": "%"}, {"measurement": "IC50", "setting": "[3]; read-out: IC50, inhibition of IL-6 production in macrophages", "value": 40, "unit": "µM"}, {"measurement": "production of IL-6", "setting": "[3]", "value": "decrease production of IL-6"}, {"measurement": "nitrite (breakdown product of nitric oxide) level", "setting": "[4]", "value": "near baseline levels"}]}
{"smiles": "CC1=C(O)C(=O)CO1", "note": "[MHF, 5-methyl-4-hydroxy-3(2H)furanone]", "values": [{"measurement": "inhibition of Cox-2 prostaglandin synthetase activity", "setting": "[2]; 500 μM MHF", "value": "inhibition of Cox-2 prostaglandin synthetase activity"}, {"measurement": "quorum sensing activity", "setting": "[5]", "value": "displays quorum sensing activity"}, {"measurement": "quorum-sensing activity", "setting": "[5]; 500 μg/ml MHF", "value": "comparable to 2.5 μL enzymatically-synthesized AI-2"}, {"measurement": "IL-6 production", "setting": "[3]; LPS-stimulated J774 macrophages", "value": "suppression of IL-6 production"}, {"measurement": "IL-6 production", "setting": "[3]; lipoteichoic acid-stimulated J774 macrophages", "value": "suppression of IL-6 production"}, {"measurement": "production of IL-6", "setting": "[3]", "value": "decrease production of IL-6"}, {"measurement": "reduction in IL-6 production", "setting": "[3]; stimulated J774 macrophages, 500 μM MHF", "value": 50, "unit": "%"}, {"measurement": "concentration at which near maximal attenuation of IL-6 release occurs", "setting": "[3]; stimulated J774 macrophages, little change at higher concentrations", "value": 877, "unit": "µM"}, {"measurement": "concentration at which detectable attenuation of IL-6 release occurs", "setting": "[3]; stimulated J774 macrophages, titration", "value": 105, "unit": "µM"}, {"measurement": "IL-6 production", "setting": "[3]; viral ribopolymer (polyCI)-stimulated J774 macrophages", "value": "suppression of IL-6 production"}, {"measurement": "nitrite (breakdown product of nitric oxide) level", "setting": "[4]", "value": "near baseline levels"}]}
{"smiles": "Nc1ncnc2nc[nH]c12", "note": "[adenine, reference compound]", "values": [{"measurement": "release of IL-1", "setting": "[1]", "value": "neither AI-2 nor its biosynthesis co-products, adenine and homocysteine, cause macrophages to release IL-1 or IL-6"}, {"measurement": "release of IL-6", "setting": "[3]", "value": "neither AI-2 nor its biosynthesis co-products, adenine and homocysteine, cause macrophages to release IL-1 or IL-6"}]}
{"smiles": "O=C1O[C@H]([C@@H](O)CO)C(O)=C1O", "note": "[ascorbic acid, reference compound]", "values": [{"measurement": "effect on IL-1 production", "setting": "[1]", "value": "affect neither IL-1 nor IL-6 production"}, {"measurement": "effect on IL-6 production", "setting": "[3]", "value": "affect neither IL-1 nor IL-6 production"}]}
{"smiles": "N[C@@H](CCS)C(=O)O", "note": "[homocysteine, reference compound]", "values": [{"measurement": "release of IL-1", "setting": "[1]", "value": "neither AI-2 nor its biosynthesis co-products, adenine and homocysteine, cause macrophages to release IL-1 or IL-6"}, {"measurement": "release of IL-6", "setting": "[3]", "value": "neither AI-2 nor its biosynthesis co-products, adenine and homocysteine, cause macrophages to release IL-1 or IL-6"}]}
{"smiles": "O=C[C@H](O)[C@H](O)[C@H](O)CO", "note": "[ribose, reference compound]", "values": [{"measurement": "effect on IL-1 production", "setting": "[1]", "value": "affect neither IL-1 nor IL-6 production"}, {"measurement": "inhibition of PGE2 production", "setting": "[2]; 500 μM ribose", "value": "inability of ribose (even at high concentrations, 500 μM) to inhibit PGE2 production"}, {"measurement": "quorum-sensing activity", "setting": "[5]; 50 μM ribose", "value": "lacks quorum-sensing activity"}, {"measurement": "effect on IL-6 production", "setting": "[3]", "value": "affect neither IL-1 nor IL-6 production"}, {"measurement": "production of IL-6", "setting": "[3]", "value": "effects no attenuation"}]}
